US9790210B2, “N-(monocyclic aryl),N'-pyrazolyl-urea, thiourea, guanidine and cyanoguanidine compounds as TrkA kinase inhibitors” (Array BioPharma Inc., priority 2012, dated 2017)

Columns and labels:
Assay in all cases: KinaseProfiler
Format in all cases: biochemical
Details in all cases: 10 μM, ATP near Km
IRAK4 = biological target: T1, IRAK4 (Homo sapiens, UniProt Q9NWZ3)
T1 construct: purchased Millipore, Inc. (KinaseProfiler service)
Protocol: (§1) A representative compound (Example 15) of the invention was tested for off-target kinase activity at a concentration of 10 μM by Millipore, Inc. in their KinaseProfiler™ service against all the kinases available in their full kinase panel. The compound was run in duplicate at a concentration of ATP near the Km for each individual kinase according to Millipore's specifications. The results are shown in Table B. Data are reported as percent of control (POC) and are the average of the two replicates.

MRCKalpha = biological target: T2, MRCKalpha (Homo sapiens, UniProt Q5VT25)
T2 construct: purchased Millipore, Inc. (KinaseProfiler service)
Protocol: as §1

TBK1 = biological target: T3, TBK1 (Homo sapiens, UniProt Q9UHD2)
T3 construct: purchased Millipore, Inc. (KinaseProfiler service)
Protocol: as §1

eEF-2K = biological target: T4, eEF-2K (Homo sapiens, UniProt O00418)
T4 construct: purchased Millipore, Inc. (KinaseProfiler service)
Protocol: as §1

CDK5/p25 = biological target: T5, CDK5/p25 (Homo sapiens, UniProt Q00535)
T5 construct: purchased Millipore, Inc. (KinaseProfiler service)
T5 sequence (Q00535 whole entry): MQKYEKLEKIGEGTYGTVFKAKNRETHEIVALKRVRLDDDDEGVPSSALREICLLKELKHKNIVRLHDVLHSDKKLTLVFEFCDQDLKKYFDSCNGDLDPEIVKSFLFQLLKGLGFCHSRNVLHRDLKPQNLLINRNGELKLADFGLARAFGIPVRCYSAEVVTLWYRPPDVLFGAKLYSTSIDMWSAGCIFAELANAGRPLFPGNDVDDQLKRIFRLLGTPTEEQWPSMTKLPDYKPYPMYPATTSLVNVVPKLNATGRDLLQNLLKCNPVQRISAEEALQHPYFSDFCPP
T5 sequence (Q15078 99-307 partner limits assumed): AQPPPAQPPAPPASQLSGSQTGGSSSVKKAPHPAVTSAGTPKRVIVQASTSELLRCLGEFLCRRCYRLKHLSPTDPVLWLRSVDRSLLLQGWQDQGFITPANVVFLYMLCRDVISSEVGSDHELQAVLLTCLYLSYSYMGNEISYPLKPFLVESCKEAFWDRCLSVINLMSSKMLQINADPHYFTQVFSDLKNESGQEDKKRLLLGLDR
Protocol: as §1

Haspin = biological target: T6, Haspin (Homo sapiens, UniProt Q8TF76)
T6 construct: purchased Millipore, Inc. (KinaseProfiler service)
Protocol: as §1

Fyn = biological target: T7, Fyn (Homo sapiens, UniProt P06241)
T7 construct: purchased Millipore, Inc. (KinaseProfiler service)
Protocol: as §1

mTOR = biological target: T8, mTOR (Homo sapiens, UniProt P42345)
T8 construct: purchased Millipore, Inc. (KinaseProfiler service)
Protocol: as §1

MAPKAP-K3 = biological target: T9, MAPKAP-K3 (Homo sapiens, UniProt Q16644)
T9 construct: purchased Millipore, Inc. (KinaseProfiler service)
T9 sequence (Q16644 whole entry): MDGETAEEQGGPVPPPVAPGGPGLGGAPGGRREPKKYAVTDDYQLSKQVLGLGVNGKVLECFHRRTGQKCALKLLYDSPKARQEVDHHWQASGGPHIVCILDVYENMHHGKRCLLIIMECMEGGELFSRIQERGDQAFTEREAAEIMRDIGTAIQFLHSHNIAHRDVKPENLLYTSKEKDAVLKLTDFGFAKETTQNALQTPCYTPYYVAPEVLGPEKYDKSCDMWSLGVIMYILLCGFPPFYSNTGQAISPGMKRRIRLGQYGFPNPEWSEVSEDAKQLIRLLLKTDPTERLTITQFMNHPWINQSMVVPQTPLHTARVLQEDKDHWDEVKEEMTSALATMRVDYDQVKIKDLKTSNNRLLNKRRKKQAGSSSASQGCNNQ
Protocol: as §1

Syk = biological target: T10, Syk (Homo sapiens, UniProt P43405)
T10 construct: purchased Millipore, Inc. (KinaseProfiler service)
Protocol: as §1

BrSK2 = biological target: T11, BrSK2 (Homo sapiens, UniProt Q8IWQ3)
T11 construct: purchased Millipore (KinaseProfiler service)
T11 sequence (Q8IWQ3 whole entry): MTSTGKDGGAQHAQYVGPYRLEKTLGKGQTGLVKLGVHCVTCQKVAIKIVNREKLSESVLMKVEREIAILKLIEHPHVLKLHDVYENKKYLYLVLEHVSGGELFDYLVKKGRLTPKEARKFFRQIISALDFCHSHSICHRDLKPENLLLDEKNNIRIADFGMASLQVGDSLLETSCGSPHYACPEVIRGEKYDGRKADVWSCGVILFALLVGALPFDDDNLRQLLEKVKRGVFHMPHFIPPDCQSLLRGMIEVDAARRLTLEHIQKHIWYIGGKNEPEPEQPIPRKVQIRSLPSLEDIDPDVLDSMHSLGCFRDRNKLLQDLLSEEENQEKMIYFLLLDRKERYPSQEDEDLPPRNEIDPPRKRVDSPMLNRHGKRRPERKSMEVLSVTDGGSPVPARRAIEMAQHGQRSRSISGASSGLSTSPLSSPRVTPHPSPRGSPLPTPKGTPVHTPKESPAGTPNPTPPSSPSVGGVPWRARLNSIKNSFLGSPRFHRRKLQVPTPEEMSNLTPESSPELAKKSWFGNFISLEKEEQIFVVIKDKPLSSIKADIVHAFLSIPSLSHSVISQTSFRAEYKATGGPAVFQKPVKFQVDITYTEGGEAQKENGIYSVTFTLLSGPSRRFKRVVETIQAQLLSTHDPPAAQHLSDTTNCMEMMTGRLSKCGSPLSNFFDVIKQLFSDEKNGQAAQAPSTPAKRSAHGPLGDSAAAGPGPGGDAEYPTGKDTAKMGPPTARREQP
Protocol: as §1

CAMK2g = biological target: T12, CAMK2g (Homo sapiens, UniProt Q13555)
T12 construct: purchased Millipore (KinaseProfiler service)
T12 sequence (Q13555 whole entry): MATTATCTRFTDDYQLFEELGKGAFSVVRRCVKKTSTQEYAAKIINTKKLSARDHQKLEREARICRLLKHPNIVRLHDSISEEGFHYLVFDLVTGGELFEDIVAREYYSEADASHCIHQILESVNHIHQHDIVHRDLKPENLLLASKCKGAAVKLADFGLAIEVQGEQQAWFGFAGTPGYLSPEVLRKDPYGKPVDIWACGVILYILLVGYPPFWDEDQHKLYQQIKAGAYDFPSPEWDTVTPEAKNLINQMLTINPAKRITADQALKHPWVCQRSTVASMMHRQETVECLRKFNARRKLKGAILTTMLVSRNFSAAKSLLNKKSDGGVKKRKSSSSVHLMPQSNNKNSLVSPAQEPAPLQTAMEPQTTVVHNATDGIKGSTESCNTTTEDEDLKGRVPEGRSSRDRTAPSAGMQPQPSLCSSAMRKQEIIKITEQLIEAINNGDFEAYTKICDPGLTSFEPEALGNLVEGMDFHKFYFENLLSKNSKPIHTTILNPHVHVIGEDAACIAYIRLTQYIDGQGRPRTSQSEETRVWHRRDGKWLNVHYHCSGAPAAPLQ
Protocol: as §1

EphA3 = biological target: T13, EphA3 (Homo sapiens, UniProt P29320)
T13 construct: purchased Millipore, Inc. (KinaseProfiler service)
Protocol: as §1

PKCalpha = biological target: T14, PKCalpha (Homo sapiens, UniProt P17252)
T14 construct: purchased Millipore, Inc. (KinaseProfiler service)
Protocol: as §1

LOK = biological target: T15, LOK (Homo sapiens, UniProt O94804)
T15 construct: purchased Millipore, Inc. (KinaseProfiler service)
Protocol: as §1

Rsk3 = biological target: T16, Rsk3 (Homo sapiens, UniProt Q15349)
T16 construct: purchased Millipore, Inc. (KinaseProfiler service)
Protocol: as §1

p38delta = biological target: T17, p38delta (Homo sapiens, UniProt O15264)
T17 construct: purchased Millipore, Inc. (KinaseProfiler service)
T17 sequence (O15264 whole entry): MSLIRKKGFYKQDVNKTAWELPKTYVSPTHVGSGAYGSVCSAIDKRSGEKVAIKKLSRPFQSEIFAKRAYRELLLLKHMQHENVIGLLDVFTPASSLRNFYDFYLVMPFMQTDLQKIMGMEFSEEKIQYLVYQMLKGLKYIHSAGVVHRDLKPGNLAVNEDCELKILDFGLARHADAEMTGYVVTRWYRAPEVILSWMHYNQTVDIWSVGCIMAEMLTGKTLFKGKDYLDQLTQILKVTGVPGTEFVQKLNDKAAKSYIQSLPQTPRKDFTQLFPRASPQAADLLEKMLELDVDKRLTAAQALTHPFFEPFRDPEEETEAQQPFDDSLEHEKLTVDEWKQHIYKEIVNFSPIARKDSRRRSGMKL
Protocol: as §1

FGFR3 = biological target: T18, FGFR3 (Homo sapiens, UniProt P22607)
T18 construct: purchased Millipore, Inc. (KinaseProfiler service)
T18 sequence (P22607 23-806): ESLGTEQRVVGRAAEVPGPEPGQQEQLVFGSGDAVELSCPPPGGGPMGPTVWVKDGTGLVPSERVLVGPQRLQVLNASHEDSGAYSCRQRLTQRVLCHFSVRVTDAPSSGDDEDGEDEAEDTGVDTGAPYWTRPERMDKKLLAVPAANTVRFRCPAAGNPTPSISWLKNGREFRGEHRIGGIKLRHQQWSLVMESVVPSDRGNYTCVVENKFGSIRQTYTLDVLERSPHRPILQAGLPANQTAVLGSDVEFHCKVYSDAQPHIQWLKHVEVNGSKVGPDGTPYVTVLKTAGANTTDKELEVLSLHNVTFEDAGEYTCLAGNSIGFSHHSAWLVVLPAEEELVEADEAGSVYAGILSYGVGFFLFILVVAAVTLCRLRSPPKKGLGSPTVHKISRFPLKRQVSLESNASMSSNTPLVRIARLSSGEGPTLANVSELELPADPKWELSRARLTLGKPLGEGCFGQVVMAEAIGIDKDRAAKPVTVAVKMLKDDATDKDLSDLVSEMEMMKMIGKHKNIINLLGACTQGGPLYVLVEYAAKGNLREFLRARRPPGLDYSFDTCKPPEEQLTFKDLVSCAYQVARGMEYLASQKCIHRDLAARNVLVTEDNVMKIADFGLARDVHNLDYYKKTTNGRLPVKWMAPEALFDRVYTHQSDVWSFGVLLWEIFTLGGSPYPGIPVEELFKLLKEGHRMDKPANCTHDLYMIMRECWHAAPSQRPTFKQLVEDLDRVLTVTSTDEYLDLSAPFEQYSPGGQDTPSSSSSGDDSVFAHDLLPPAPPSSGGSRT
Protocol: as §1

GRK7 = biological target: T19, GRK7 (Homo sapiens, UniProt Q8WTQ7)
T19 construct: purchased Millipore, Inc. (KinaseProfiler service)
Protocol: as §1

Fgr = biological target: T20, Fgr (Homo sapiens, UniProt P09769)
T20 construct: purchased Millipore, Inc. (KinaseProfiler service)
T20 sequence (P09769 whole entry): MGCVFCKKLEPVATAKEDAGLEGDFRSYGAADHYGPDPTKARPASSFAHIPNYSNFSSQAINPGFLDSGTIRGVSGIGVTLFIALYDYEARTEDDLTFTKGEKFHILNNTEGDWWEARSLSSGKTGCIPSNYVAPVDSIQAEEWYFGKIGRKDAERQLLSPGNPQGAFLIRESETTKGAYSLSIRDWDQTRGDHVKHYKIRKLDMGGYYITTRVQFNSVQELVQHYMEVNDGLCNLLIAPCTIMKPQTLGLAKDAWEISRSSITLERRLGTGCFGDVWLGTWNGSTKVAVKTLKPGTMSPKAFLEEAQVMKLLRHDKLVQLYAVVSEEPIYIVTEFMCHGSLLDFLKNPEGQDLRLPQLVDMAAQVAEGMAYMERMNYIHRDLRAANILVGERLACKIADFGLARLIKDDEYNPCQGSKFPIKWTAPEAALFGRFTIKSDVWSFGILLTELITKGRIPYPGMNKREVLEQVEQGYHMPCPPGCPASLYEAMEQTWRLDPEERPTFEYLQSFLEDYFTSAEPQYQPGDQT
Protocol: as §1

MuSK = biological target: T21, MuSK (Homo sapiens, UniProt O15146)
T21 construct: purchased Millipore, Inc. (KinaseProfiler service)
Protocol: as §1

EphA8 = biological target: T22, EphA8 (Homo sapiens, UniProt P29322)
T22 construct: purchased Millipore, Inc. (KinaseProfiler service)
Protocol: as §1

MST2 = biological target: T23, MST2 (Homo sapiens, UniProt Q13188)
T23 construct: purchased Millipore, Inc. (KinaseProfiler service)
Protocol: as §1

CDK1/cyclinB = biological target: T24, CDK1/cyclinB (Homo sapiens, UniProt P06493)
T24 construct: purchased Millipore (KinaseProfiler service)
Protocol: as §1

Plk3 = biological target: T25, Plk3 (Homo sapiens, UniProt Q9H4B4)
T25 construct: purchased Millipore, Inc. (KinaseProfiler service)
Protocol: as §1

PKAC-alpha = biological target: T26, PKAC-alpha (Homo sapiens, UniProt P17612)
T26 construct: purchased Millipore, Inc. (KinaseProfiler service)
Protocol: as §1

NEK3 = biological target: T27, NEK3 (Homo sapiens, UniProt P51956)
T27 construct: purchased Millipore, Inc. (KinaseProfiler service)
Protocol: as §1

CDK2/cyclinA = biological target: T28, CDK2/cyclinA (Homo sapiens, UniProt P24941)
T28 construct: purchased Millipore, Inc. (KinaseProfiler service)
Protocol: as §1

c-RAF = biological target: T29, c-RAF (Homo sapiens, UniProt P04049, Y340D/Y341D)
T29 construct: purchased Millipore, Inc. (KinaseProfiler service)
Protocol: as §1

PAK6 = biological target: T30, PAK6 (Homo sapiens, UniProt Q9NQU5)
T30 construct: purchased Millipore, Inc. (KinaseProfiler service)
Protocol: as §1

HIPK2 = biological target: T31, HIPK2 (Homo sapiens, UniProt Q9H2X6)
T31 construct: purchased Millipore, Inc. (KinaseProfiler service)
Protocol: as §1

MSSK1 = biological target: T32, MSSK1 (Homo sapiens, UniProt Q9UPE1)
T32 construct: purchased Millipore, Inc. (KinaseProfiler service)
Protocol: as §1

p38alpha = biological target: T33, p38alpha (Homo sapiens, UniProt Q16539)
T33 construct: purchased Millipore, Inc. (KinaseProfiler service)
Protocol: as §1

MELK = biological target: T34, MELK (Homo sapiens, UniProt Q14680)
T34 construct: purchased Millipore, Inc. (KinaseProfiler service)
Protocol: as §1

HIPK1 = biological target: T35, HIPK1 (Homo sapiens, UniProt Q86Z02)
T35 construct: purchased Millipore, Inc. (KinaseProfiler service)
Protocol: as §1

PKD2 = biological target: T36, PKD2 (Homo sapiens, UniProt Q9BZL6)
T36 construct: purchased Millipore, Inc. (KinaseProfiler service)
Protocol: as §1

CDK7/cyclinH/MAT1 = biological target: T37, CDK7/cyclinH/MAT1 (Homo sapiens, UniProt P50613)
T37 construct: purchased Millipore, Inc. (KinaseProfiler service)
Protocol: as §1

PKCbetaI = biological target: T38, PKCbetaI (Homo sapiens, UniProt P05771)
T38 construct: purchased Millipore, Inc. (KinaseProfiler service)
Protocol: as §1

PKCdelta = biological target: T39, PKCdelta (Homo sapiens, UniProt Q05655)
T39 construct: purchased Millipore, Inc. (KinaseProfiler service)
T39 sequence (Q05655 whole entry): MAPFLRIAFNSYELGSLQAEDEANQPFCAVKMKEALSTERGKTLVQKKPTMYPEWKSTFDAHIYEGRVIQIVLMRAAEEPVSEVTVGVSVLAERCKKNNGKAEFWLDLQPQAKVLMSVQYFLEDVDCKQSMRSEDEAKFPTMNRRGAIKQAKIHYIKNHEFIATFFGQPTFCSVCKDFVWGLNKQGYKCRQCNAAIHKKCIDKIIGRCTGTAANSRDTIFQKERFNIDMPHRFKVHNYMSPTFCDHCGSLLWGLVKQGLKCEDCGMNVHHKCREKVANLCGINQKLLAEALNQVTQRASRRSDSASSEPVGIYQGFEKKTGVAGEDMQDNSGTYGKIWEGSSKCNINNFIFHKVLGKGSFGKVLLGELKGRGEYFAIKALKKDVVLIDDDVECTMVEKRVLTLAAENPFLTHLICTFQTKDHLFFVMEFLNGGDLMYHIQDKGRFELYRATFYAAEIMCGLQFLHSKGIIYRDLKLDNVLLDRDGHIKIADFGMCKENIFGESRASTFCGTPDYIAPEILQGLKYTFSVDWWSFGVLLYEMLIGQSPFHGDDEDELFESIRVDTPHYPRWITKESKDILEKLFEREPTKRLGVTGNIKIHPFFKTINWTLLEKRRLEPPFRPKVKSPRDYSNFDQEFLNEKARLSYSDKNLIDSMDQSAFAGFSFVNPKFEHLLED
Protocol: as §1

ErbB4 = biological target: T40, ErbB4 (Homo sapiens, UniProt Q15303)
T40 construct: purchased Millipore, Inc. (KinaseProfiler service)
Protocol: as §1

T1 sequence (Q9NWZ3 whole entry): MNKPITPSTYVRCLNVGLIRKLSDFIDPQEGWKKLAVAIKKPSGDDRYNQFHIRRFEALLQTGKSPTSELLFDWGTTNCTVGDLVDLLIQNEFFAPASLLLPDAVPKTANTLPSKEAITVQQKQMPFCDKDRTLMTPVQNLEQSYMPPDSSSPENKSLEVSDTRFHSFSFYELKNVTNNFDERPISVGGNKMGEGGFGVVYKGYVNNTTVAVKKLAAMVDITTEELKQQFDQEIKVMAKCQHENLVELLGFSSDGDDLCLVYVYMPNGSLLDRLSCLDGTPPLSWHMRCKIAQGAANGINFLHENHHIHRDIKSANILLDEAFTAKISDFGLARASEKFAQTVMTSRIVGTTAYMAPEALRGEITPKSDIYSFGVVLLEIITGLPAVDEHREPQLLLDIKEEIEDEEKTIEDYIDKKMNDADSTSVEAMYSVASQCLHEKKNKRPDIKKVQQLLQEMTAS

`COCCCc1cc(Cl)c(Cl)cc1NC(=O)Nc1c(C)c(-c2cnn(C)c2)nn1-c1ccccc1` [Example 15, 1-(4,5-dichloro-2-(3-methoxypropyl)phenyl)-3-(1′,4-dimethyl-1-phenyl-1H,1′H-[3,4′-bipyrazol]-5-yl)urea] was tested, and the “Avg POC” value (IRAK4) was 124.5 POC, the “Avg POC” value (MRCKalpha) was 137 POC and the “Avg POC” value (TBK1) was 110 POC. For the same compound, the “Avg POC” value (eEF-2K) was 181 POC, the “Avg POC” value (CDK5/p25) was 106 POC and the “Avg POC” value (Haspin) was 121.5 POC. The “Avg POC” value (Fyn) was 111.5 POC, the “Avg POC” value (mTOR) was 102.5 POC and the “Avg POC” value (MAPKAP-K3) was 112.5 POC. For the same compound, the “Avg POC” value (Syk) was 100 POC, the “Avg POC” value (BrSK2) was 123 POC and the “Avg POC” value (CAMK2g) was 103 POC. For the same compound, the “Avg POC” value (EphA3) was 117 POC, the “Avg POC” value (PKCalpha) was 104 POC and the “Avg POC” value (LOK) was 135 POC. For the same compound, the “Avg POC” value (Rsk3) was 104 POC, the “Avg POC” value (p38delta) was 100.5 POC and the “Avg POC” value (FGFR3) was 106.5 POC. The “Avg POC” value (GRK7) was 115 POC, the “Avg POC” value (Fgr) was 118 POC and the “Avg POC” value (MuSK) was 100 POC. For the same compound, the “Avg POC” value (EphA8) was 127.5 POC, the “Avg POC” value (MST2) was 101.5 POC and the “Avg POC” value (CDK1/cyclinB) was 97 POC. The “Avg POC” value (Plk3) was 109 POC, the “Avg POC” value (PKAC-alpha) was 149 POC and the “Avg POC” value (NEK3) was 120 POC. The “Avg POC” value (CDK2/cyclinA) was 112.5 POC, the “Avg POC” value (c-RAF) was 98.5 POC and the “Avg POC” value (PAK6) was 148 POC. The “Avg POC” value (HIPK2) was 99.5 POC, the “Avg POC” value (MSSK1) was 122 POC and the “Avg POC” value (p38alpha) was 100.5 POC. For the same compound, the “Avg POC” value (MELK) was 142.5 POC, the “Avg POC” value (HIPK1) was 118 POC and the “Avg POC” value (PKD2) was 98.5 POC. For the same compound, the “Avg POC” value (CDK7/cyclinH/MAT1) was 106 POC, the “Avg POC” value (PKCbetaI) was 106 POC and the “Avg POC” value (PKCdelta) was 96 POC. For the same compound, the “Avg POC” value (ErbB4) was 118.5 POC.
